# System: MV-4-11 cells
# Test: Gene expression microarray analysis (Affymetrix PrimeView) and GSEA
# Format: cell-based, human
# Design: RFU PODN (11730768_x_at) / Fold change /veh PODN (11730768_x_at) / RFU LINC00158 (11744669_a_at) / Fold change /veh LINC00158 (11744669_a_at) / RFU DUSP10 (11751237_a_at) / Fold change /veh DUSP10 (11751237_a_at) / RFU ID3 (11757404_x_at) / Fold change /veh ID3 (11757404_x_at) / RFU PLEKHG5 (11737974_s_at) / Fold change /veh PLEKHG5 (11737974_s_at) / RFU LRRC4B (11730491_at) / Fold change /veh LRRC4B (11730491_at) / RFU GIMAP4 (11747438_a_at) / Fold change /veh GIMAP4 (11747438_a_at) / RFU KRT8 (11758183_x_at) / Fold change /veh KRT8 (11758183_x_at) / RFU CNN1 (11734310_a_at) / Fold change /veh CNN1 (11734310_a_at) / RFU VPS37D (11726825_at) / Fold change /veh VPS37D (11726825_at) / RFU C10orf10 (11716522_x_at) / Fold change /veh C10orf10 (11716522_x_at) / RFU KIR2DL2 /// KIR2DL4 /// KIR2DL5A /// KIR2DL5B /// KIR2DS1 /// KIR2DS2 /// KIR2DS3 /// KIR2DS4 /// KIR3DL3 /// KIR3DL3 /// KIR3DS1 (11738374_at) / Fold change /veh KIR2DL2 /// KIR2DL4 /// KIR2DL5A /// KIR2DL5B /// KIR2DS1 /// KIR2DS2 /// KIR2DS3 /// KIR2DS4 /// KIR3DL3 /// KIR3DL3 /// KIR3DS1 (11738374_at) / RFU C1QL1 (11718748_at) / Fold change /veh C1QL1 (11718748_at) / RFU TMPRSS4 (11747572_a_at) / Fold change /veh TMPRSS4 (11747572_a_at) / RFU HAMP (11756126_x_at) / Fold change /veh HAMP (11756126_x_at) / RFU RNFT2 (11725882_a_at) / Fold change /veh RNFT2 (11725882_a_at) / RFU NR4A2 (11747474_a_at) / Fold change /veh NR4A2 (11747474_a_at) / RFU ABCC12 (11746883_a_at) / Fold change /veh ABCC12 (11746883_a_at) / RFU TMEM136 (11760407_x_at) / Fold change /veh TMEM136 (11760407_x_at) / RFU CLDN22 /// WWC2 (11732394_at) / Fold change /veh CLDN22 /// WWC2 (11732394_at) / RFU HLA-DPB1 (11760878_x_at) / Fold change /veh HLA-DPB1 (11760878_x_at) / RFU SPINT1 (11716480_a_at) / Fold change /veh SPINT1 (11716480_a_at) / RFU GAP43 (11754022_s_at) / Fold change /veh GAP43 (11754022_s_at) / RFU A4GNT (11735810_at) / Fold change /veh A4GNT (11735810_at) / RFU PRB3 (11715151_x_at) / Fold change /veh PRB3 (11715151_x_at) / RFU TUBB4B (11761932_at) / Fold change /veh TUBB4B (11761932_at) / RFU CAPN14 (11732068_a_at) / Fold change /veh CAPN14 (11732068_a_at) / RFU TMCC2 (11721928_a_at) / Fold change /veh TMCC2 (11721928_a_at) / RFU IRGQ (11745062_a_at) / Fold change /veh IRGQ (11745062_a_at) / RFU FAM174B (11720279_a_at) / Fold change /veh FAM174B (11720279_a_at) / RFU TMPRSS4 (11748680_a_at) / Fold change /veh TMPRSS4 (11748680_a_at) / RFU FAM212B (11763350_a_at) / Fold change /veh FAM212B (11763350_a_at) / RFU PLEKHG5 (11743358_a_at) / Fold change /veh PLEKHG5 (11743358_a_at) / RFU ZSCAN30 (11745921_a_at) / Fold change /veh ZSCAN30 (11745921_a_at) / RFU CMKLR1 (11741424_a_at) / Fold change /veh CMKLR1 (11741424_a_at) / RFU LOC101060620 /// MAPK8IP1 (11723275_at) / Fold change /veh LOC101060620 /// MAPK8IP1 (11723275_at) / RFU SPTSSB (11747773_x_at) / Fold change /veh SPTSSB (11747773_x_at) / RFU PRSS12 (11739890_at) / Fold change /veh PRSS12 (11739890_at) / RFU BIN1 (11741810_x_at) / Fold change /veh BIN1 (11741810_x_at) / RFU WNT11 (11732464_a_at) / Fold change /veh WNT11 (11732464_a_at) / RFU C10orf10 (11716521_a_at) / Fold change /veh C10orf10 (11716521_a_at) / RFU C5orf56 (11738089_at) / Fold change /veh C5orf56 (11738089_at) / RFU CYB561 (11721691_x_at) / Fold change /veh CYB561 (11721691_x_at) / RFU ANKRD19P (11752326_a_at) / Fold change /veh ANKRD19P (11752326_a_at) / RFU OR2T12 /// OR2T33 /// OR2T8 (11738714_s_at) / Fold change /veh OR2T12 /// OR2T33 /// OR2T8 (11738714_s_at) / RFU VCAN (11748164_a_at) / Fold change /veh VCAN (11748164_a_at) / RFU JSRP1 (11732532_at) / Fold change /veh JSRP1 (11732532_at) / RFU KRTAP10-11 (11738290_x_at) / Fold change /veh KRTAP10-11 (11738290_x_at) / RFU MYO3A (11730013_a_at) / Fold change /veh MYO3A (11730013_a_at) / RFU EBF3 (11725865_a_at) / Fold change /veh EBF3 (11725865_a_at) / RFU CAMK2N1 (11719241_x_at) / Fold change /veh CAMK2N1 (11719241_x_at) / RFU C5orf56 (11738088_a_at) / Fold change /veh C5orf56 (11738088_a_at) / RFU OLFML3 (11715873_a_at) / Fold change /veh OLFML3 (11715873_a_at) / RFU LOC100653217 /// NTM (11731650_a_at) / Fold change /veh LOC100653217 /// NTM (11731650_a_at) / RFU MAPK11 (11762145_a_at) / Fold change /veh MAPK11 (11762145_a_at) / RFU FIZ1 (11724087_x_at) / Fold change /veh FIZ1 (11724087_x_at) / RFU OASL (11726364_x_at) / Fold change /veh OASL (11726364_x_at) / RFU SOX15 (11748057_x_at) / Fold change /veh SOX15 (11748057_x_at) / RFU CD79A (11719716_a_at) / Fold change /veh CD79A (11719716_a_at) / RFU HIST1H1D (11736915_at) / Fold change /veh HIST1H1D (11736915_at) / RFU CASKIN2 (11723855_a_at) / Fold change /veh CASKIN2 (11723855_a_at) / RFU LOC730098 (11760151_x_at) / Fold change /veh LOC730098 (11760151_x_at) / RFU OR4N2 (11742367_at) / Fold change /veh OR4N2 (11742367_at) / RFU PRRT2 (11749266_a_at) / Fold change /veh PRRT2 (11749266_a_at) / RFU SNX32 (11753110_a_at) / Fold change /veh SNX32 (11753110_a_at) / RFU CDHR5 (11726645_a_at) / Fold change /veh CDHR5 (11726645_a_at) / RFU RCAN1 (11760418_a_at) / Fold change /veh RCAN1 (11760418_a_at) / RFU FAM167A (11723789_a_at) / Fold change /veh FAM167A (11723789_a_at) / RFU FAM26E (11764081_at) / Fold change /veh FAM26E (11764081_at) / RFU ISYNA1 (11749810_s_at) / Fold change /veh ISYNA1 (11749810_s_at) / RFU ACY1 (11761880_at) / Fold change /veh ACY1 (11761880_at) / RFU 11764098_at / Fold change /veh 11764098_at / RFU SAMD14 (11745864_x_at) / Fold change /veh SAMD14 (11745864_x_at) / RFU NPB (11741838_a_at) / Fold change /veh NPB (11741838_a_at) / RFU TMPRSS6 (11731388_a_at) / Fold change /veh TMPRSS6 (11731388_a_at) / RFU KRTAP10-2 (11738614_at) / Fold change /veh KRTAP10-2 (11738614_at) / RFU ARHGAP8 /// PRR5-ARHGAP8 (11727945_x_at) / Fold change /veh ARHGAP8 /// PRR5-ARHGAP8 (11727945_x_at) / RFU KRTAP5-7 /// NADSYN1 (11734609_at) / Fold change /veh KRTAP5-7 /// NADSYN1 (11734609_at) / RFU RASL12 (11751679_a_at) / Fold change /veh RASL12 (11751679_a_at) / RFU CDKN2B (11736163_a_at) / Fold change /veh CDKN2B (11736163_a_at) / RFU PRF1 (11729649_at) / Fold change /veh PRF1 (11729649_at) / RFU, ZNF638 /// ZNF638-IT1 / Fold change vs veh, ZNF638 /// ZNF638-IT1 / RFU, PANK3 / Fold change vs veh, PANK3 / RFU, SH3YL1 / Fold change vs veh, SH3YL1 / RFU, ZEB2 / Fold change vs veh, ZEB2 / RFU, NRIP1 / Fold change vs veh, NRIP1 / RFU, PTTG1IP / Fold change vs veh, PTTG1IP / RFU, CAPN2 / Fold change vs veh, CAPN2 / RFU, MED14 / Fold change vs veh, MED14 / RFU, SNORA58 / Fold change vs veh, SNORA58 / RFU, C1orf63 / Fold change vs veh, C1orf63 / RFU, LRRFIP1 / Fold change vs veh, LRRFIP1 / RFU, NDUFAF7 / Fold change vs veh, NDUFAF7 / RFU, SLC12A2 / Fold change vs veh, SLC12A2 / RFU, IBTK / Fold change vs veh, IBTK / RFU, ESF1 / Fold change vs veh, ESF1 / Fold change vs veh, TMEM50B / RFU, TAOK1 / Fold change vs veh, TAOK1 / RFU, ACBD3 / Fold change vs veh, ACBD3 / RFU, TMA16 / Fold change vs veh, TMA16 / RFU, RWDD3 / Fold change vs veh, RWDD3 / RFU, BCAT1 / Fold change vs veh, BCAT1 / RFU, EDEM3 / Fold change vs veh, EDEM3 / RFU, TMEM33 / Fold change vs veh, TMEM33 / RFU, WDR75 / Fold change vs veh, WDR75 / RFU, AHCTF1 / Fold change vs veh, AHCTF1 / RFU, TFRC / Fold change vs veh, TFRC / RFU, ZDHHC17 / Fold change vs veh, ZDHHC17 / RFU, NOM1 / Fold change vs veh, NOM1 / RFU, ARL8B / Fold change vs veh, ARL8B / RFU, ZBTB11 / Fold change vs veh, ZBTB11 / RFU, TAMM41 / Fold change vs veh, TAMM41 / RFU, KIAA1704 /// LOC100996395 / Fold change vs veh, KIAA1704 /// LOC100996395 / RFU, ING1 / Fold change vs veh, ING1 / RFU, TRMT61B / Fold change vs veh, TRMT61B / RFU, FUBP3 / Fold change vs veh, FUBP3 / RFU, TP53 / Fold change vs veh, TP53 / RFU, TNKS2 / Fold change vs veh, TNKS2 / RFU, ZFP14 / Fold change vs veh, ZFP14 / RFU, ACTR2 / Fold change vs veh, ACTR2 / RFU, PPP3R1 / Fold change vs veh, PPP3R1 / RFU, PIK3R1 / Fold change vs veh, PIK3R1 / RFU, HNRNPA1 / Fold change vs veh, HNRNPA1 / RFU, RNF170 / Fold change vs veh, RNF170 / RFU, ZNF28 / Fold change vs veh, ZNF28 / RFU, RNGTT / Fold change vs veh, RNGTT / RFU, OGT / Fold change vs veh, OGT / RFU, BRD1 / Fold change vs veh, BRD1 / RFU, MARS / Fold change vs veh, MARS / RFU, ZNF655 / Fold change vs veh, ZNF655 / RFU, FAHD1 / Fold change vs veh, FAHD1 / RFU, BDP1 / Fold change vs veh, BDP1 / RFU, LRRCC1 / Fold change vs veh, LRRCC1 / RFU, ARID1A / Fold change vs veh, ARID1A / RFU, ZNF146 / Fold change vs veh, ZNF146 / RFU, ZNF330 / Fold change vs veh, ZNF330 / RFU, GPN3 / Fold change vs veh, GPN3 / RFU, C9orf123 / Fold change vs veh, C9orf123 / RFU, N4BP2L2 / Fold change vs veh, N4BP2L2 / RFU, ARFIP1 / Fold change vs veh, ARFIP1 / RFU, FAM179B / Fold change vs veh, FAM179B / RFU, BCL10 / Fold change vs veh, BCL10 / RFU, UHRF1BP1L / Fold change vs veh, UHRF1BP1L / RFU, BET1 / Fold change vs veh, BET1 / RFU, CNOT2 / Fold change vs veh, CNOT2 / RFU, ZNF268 / Fold change vs veh, ZNF268 / Fold change vs veh, ZNF507 / RFU, DGCR2 / Fold change vs veh, DGCR2 / RFU, WDSUB1 / Fold change vs veh, WDSUB1 / Fold change vs veh, HSP90B1 /// MIR3652 / RFU, ADSS / Fold change vs veh, ADSS / RFU, GK / Fold change vs veh, GK / RFU, ZNF148 / Fold change vs veh, ZNF148 / RFU, TAF9 / Fold change vs veh, TAF9 / RFU, SLC1A5 / Fold change vs veh, SLC1A5 / RFU, SLMO2 / Fold change vs veh, SLMO2 / RFU, ABCC4 / Fold change vs veh, ABCC4 / RFU, LOC101060439 /// RAP1B / Fold change vs veh, LOC101060439 /// RAP1B / RFU, RFX7 / Fold change vs veh, RFX7 / RFU, GTPBP10 / Fold change vs veh, GTPBP10 / RFU, CNEP1R1 / Fold change vs veh, CNEP1R1 / RFU, BIVM-ERCC5 /// ERCC5 / Fold change vs veh, BIVM-ERCC5 /// ERCC5 / RFU, ILF3 / Fold change vs veh, ILF3 / RFU 11762660_at / Fold change /veh 11762660_at / RFU VCAN (11757783_s_at) / Fold change /veh VCAN (11757783_s_at) / RFU DDX43 (11728927_at) / Fold change /veh DDX43 (11728927_at) / RFU KRT8 (11758188_x_at) / Fold change /veh KRT8 (11758188_x_at) / RFU NKD1 (11759106_at) / Fold change /veh NKD1 (11759106_at) / RFU SRD5A1 (11742802_a_at) / Fold change /veh SRD5A1 (11742802_a_at) / RFU TPSAB1 /// TPSB2 (11721975_s_at) / Fold change /veh TPSAB1 /// TPSB2 (11721975_s_at) / RFU GSTM3 (11746129_a_at) / Fold change /veh GSTM3 (11746129_a_at) / RFU IL23R (11737362_x_at) / Fold change /veh IL23R (11737362_x_at) / RFU TMEM51 (11727254_a_at) / Fold change /veh TMEM51 (11727254_a_at) / RFU PIWIL2 (11732686_x_at) / Fold change /veh PIWIL2 (11732686_x_at) / RFU ORM1 (11744905_x_at) / Fold change /veh ORM1 (11744905_x_at) / RFU CCDC152 (11743942_at) / Fold change /veh CCDC152 (11743942_at) / RFU ECM1 (11717891_a_at) / Fold change /veh ECM1 (11717891_a_at) / RFU IL23R (11748794_a_at) / Fold change /veh IL23R (11748794_a_at) / RFU TNFAIP8L3 (11732012_x_at) / Fold change /veh TNFAIP8L3 (11732012_x_at) / RFU MBOAT4 (11741988_at) / Fold change /veh MBOAT4 (11741988_at) / RFU 11764193_at / Fold change /veh 11764193_at / RFU TMEM53 (11763286_at) / Fold change /veh TMEM53 (11763286_at) / RFU MAGEB2 (11727129_at) / Fold change /veh MAGEB2 (11727129_at) / RFU TMEM200A (11744735_a_at) / Fold change /veh TMEM200A (11744735_a_at) / RFU CCDC152 (11751479_a_at) / Fold change /veh CCDC152 (11751479_a_at) / RFU FAM211A (11726209_a_at) / Fold change /veh FAM211A (11726209_a_at) / RFU RGS16 (11746705_a_at) / Fold change /veh RGS16 (11746705_a_at) / RFU VCAN (11755009_s_at) / Fold change /veh VCAN (11755009_s_at) / RFU RHOB (11743442_s_at) / Fold change /veh RHOB (11743442_s_at) / RFU RGS16 (11720943_a_at) / Fold change /veh RGS16 (11720943_a_at) / RFU RGS16 (11720944_at) / Fold change /veh RGS16 (11720944_at) / RFU, VPS4B / Fold change vs veh, VPS4B / RFU, CREB1 / Fold change vs veh, CREB1 / RFU, DNAJC13 / Fold change vs veh, DNAJC13 / RFU, GNAQ / Fold change vs veh, GNAQ / RFU, CDK5R1 / Fold change vs veh, CDK5R1 / RFU, ZRANB3 / Fold change vs veh, ZRANB3 / RFU, CUL4A / Fold change vs veh, CUL4A / RFU, CCNY / Fold change vs veh, CCNY / RFU, UFL1 / Fold change vs veh, UFL1 / RFU, COG3 / Fold change vs veh, COG3 / RFU, DIAPH2 / Fold change vs veh, DIAPH2 / RFU, SKA2 / Fold change vs veh, SKA2 / RFU, AFF3 / Fold change vs veh, AFF3 / RFU, LMF1 / Fold change vs veh, LMF1 / RFU, IPO11 / Fold change vs veh, IPO11 / RFU, DFFB / Fold change vs veh, DFFB / RFU, FOXP1 / Fold change vs veh, FOXP1 / RFU, CARD8 / Fold change vs veh, CARD8 / RFU, STRN3 / Fold change vs veh, STRN3 / RFU, ADK / Fold change vs veh, ADK / RFU, RASSF2 / Fold change vs veh, RASSF2 / RFU, WIPF1 / Fold change vs veh, WIPF1 / RFU, LARP1B / Fold change vs veh, LARP1B / RFU, RASA1 / Fold change vs veh, RASA1 / RFU, RB1 / Fold change vs veh, RB1 / RFU, PPFIA1 / Fold change vs veh, PPFIA1 / RFU, MAT2A / Fold change vs veh, MAT2A / RFU, CCT5 / Fold change vs veh, CCT5 / RFU, WDR92 / Fold change vs veh, WDR92 / RFU, CUX1 / Fold change vs veh, CUX1 / RFU, TTC7A / Fold change vs veh, TTC7A / RFU, TMEM135 / Fold change vs veh, TMEM135 / RFU, DEPTOR / Fold change vs veh, DEPTOR / RFU, CPM / Fold change vs veh, CPM / RFU, DNAJB6 / Fold change vs veh, DNAJB6 / RFU, CACNA2D3 / Fold change vs veh, CACNA2D3 / RFU, DTX4 / Fold change vs veh, DTX4 / RFU, TFCP2 / Fold change vs veh, TFCP2 / RFU, GMCL1 /// GMCL1P1 / Fold change vs veh, GMCL1 /// GMCL1P1 / RFU, AEBP2 / Fold change vs veh, AEBP2 / RFU, SNHG1 /// SNORD22 /// SNORD25 /// SNORD26 /// SNORD27 /// SNORD28 /// SNORD29 /// SNORD31 / Fold change vs veh, SNHG1 /// SNORD22 /// SNORD25 /// SNORD26 /// SNORD27 /// SNORD28 /// SNORD29 /// SNORD31 / Fold change (Aza/veh), C12orf56 (ProbeSet 11735607_a_at) / Fold change (ACY-1035/veh), C12orf56 (ProbeSet 11735607_a_at) / Fold change (Aza/veh), FGFR1OP (ProbeSet 11751329_s_at) / Fold change (ACY-1035/veh), FGFR1OP (ProbeSet 11751329_s_at) / Fold change (Aza/veh), VPS36 (ProbeSet 11739960_a_at) / Fold change (ACY-1035/veh), VPS36 (ProbeSet 11739960_a_at) / RFU SYPL1 (11715823_x_at) / Fold change /veh SYPL1 (11715823_x_at) / RFU IGFBP7 (11715501_s_at) / Fold change /veh IGFBP7 (11715501_s_at) / RFU REEP3 (11722064_at) / Fold change /veh REEP3 (11722064_at) / RFU IGLL1 (11728026_x_at) / Fold change /veh IGLL1 (11728026_x_at): dose or concentration left out as unconfirmed
# Conditions: ProbeSet 11755070_a_at; LIST D
compound,measurement,value
Nc1ccc(-c2cccs2)cc1NC(=O)c1ccc2c(c1)cc(C1CC1)n2CCN1CCOCC1 [ACY-1035],"RFU, CARD8",173.18 RFU
